# Source: ChEMBL document CHEMBL2150933 (J Med Chem, 2012)
# How the values were obtained:
# Type in all cases: functional
# A549 [1] = assay: Cytotoxicity against human A549 cells after 72 hrs by MTT assay; settings: A549, 72 h
# COLO 205 [2] = assay: Cytotoxicity against human COLO205 cells after 72 hrs by MTT assay; settings: COLO 205, 72 h
# [3] = Cytotoxicity against human 786-O cells after 48 hrs by SRB assay; settings: 786-0, 48 h
# MDA-MB-231 = assay: Cytotoxicity against human MDA-MB-231 cells after 48 hrs by SRB assay; settings: MDA-MB-231, 48 h
# BXPC-3 = assay: Cytotoxicity against human BxPC3 cells after 72 hrs by MTT assay; settings: BXPC-3, 72 h
# A549 [4] = assay: Cytotoxicity against human A549 cells after 48 hrs by SRB assay; settings: A549, 48 h
# COLO 205 [5] = assay: Cytotoxicity against human COLO205 cells after 48 hrs by SRB assay; settings: COLO 205, 48 h
# SK-MEL-28 = assay: Cytotoxicity against human SK-MEL-28 cells after 48 hrs by SRB assay; settings: SK-MEL-28, 48 h
# HT-29 = assay: Cytotoxicity against human HT-29 cells after 48 hrs by SRB assay; settings: HT-29, 48 h
# SR = assay: Cytotoxicity against human SR cells after 48 hrs by SRB assay
# OVCAR-4 = assay: Cytotoxicity against human OVCAR4 cells after 48 hrs by SRB assay; settings: OVCAR-4, 48 h
# HL-60 = assay: Cytotoxicity against human HL60 cells after 48 hrs by SRB assay; settings: HL-60, 48 h
# SF-268 = assay: Cytotoxicity against human SF268 cells after 48 hrs by SRB assay; settings: SF-268, 48 h
# DU-145 = assay: Cytotoxicity against human DU145 cells after 48 hrs by SRB assay; settings: DU-145, 48 h
# U-251 = assay: Cytotoxicity against human U251 cells after 48 hrs by SRB assay; settings: U-251, 48 h
# [6] = Cytotoxicity against human NCI-ADR-RES cells after 48 hrs by SRB assay
# SF-539 = assay: Cytotoxicity against human SF539 cells after 48 hrs by SRB assay; settings: SF-539, 48 h
# TK-10 = assay: Cytotoxicity against human TK10 cells after 48 hrs by SRB assay; settings: TK-10, 48 h
# M14 = assay: Cytotoxicity against human M14 cells after 48 hrs by SRB assay; settings: M14, 48 h
# CAKI-1 = assay: Cytotoxicity against human Caki1 cells after 48 hrs by SRB assay; settings: CAKI-1, 48 h
# SF-295 = assay: Cytotoxicity against human SF295 cells after 48 hrs by SRB assay; settings: SF-295, 48 h
# PC-3 = assay: Cytotoxicity against human PC3 cells after 48 hrs by SRB assay; settings: PC-3, 48 h
# EKVX = assay: Cytotoxicity against human EKVX cells after 48 hrs by SRB assay
# OVCAR-8 = assay: Cytotoxicity against human OVCAR8 cells after 48 hrs by SRB assay; settings: OVCAR-8, 48 h
# T47D = assay: Cytotoxicity against human T47D cells after 48 hrs by SRB assay
# RXF 393 = assay: Cytotoxicity against human RXF393 cells after 48 hrs by SRB assay; settings: RXF 393, 48 h
# NCI-H522 = assay: Cytotoxicity against human NCI-H522 cells after 48 hrs by SRB assay; settings: NCI-H522, 48 h
# MCF7 = assay: Cytotoxicity against human MCF7 cells after 48 hrs by SRB assay; settings: MCF7, 48 h
# RPMI-8226 = assay: Cytotoxicity against human RPMI8226 cells after 48 hrs by SRB assay; settings: RPMI-8226, 48 h
# K562 = assay: Cytotoxicity against human K562 cells after 48 hrs by SRB assay; settings: K562, 48 h
# SK-MEL-2 = assay: Cytotoxicity against human SK-MEL-2 cells after 48 hrs by SRB assay; settings: SK-MEL-2, 48 h
# NCI-H460 = assay: Cytotoxicity against human NCI-H460 cells after 48 hrs by SRB assay; settings: NCI-H460, 48 h
# SNB-75 = assay: Cytotoxicity against human SNB75 cells after 48 hrs by SRB assay; settings: SNB-75, 48 h
# LOX IMVI = assay: Cytotoxicity against human LOXIMVI cells after 48 hrs by SRB assay
# IGROV-1 = assay: Cytotoxicity against human IGROV1 cells after 48 hrs by SRB assay; settings: IGROV-1, 48 h
# SW-620 = assay: Cytotoxicity against human SW620 cells after 48 hrs by SRB assay; settings: SW-620, 48 h
# CCRF-CEM = assay: Cytotoxicity against human CCRF-CEM cells after 48 hrs by SRB assay
# SNB-19 = assay: Cytotoxicity against human SNB19 cells after 48 hrs by SRB assay; settings: SNB-19, 48 h
# UO-31 = assay: Cytotoxicity against human UO31 cells after 48 hrs by SRB assay; settings: UO-31, 48 h
# NCI-H226 = assay: Cytotoxicity against human NCI-H226 cells after 48 hrs by SRB assay; settings: NCI-H226, 48 h
# MOLT-4 = assay: Cytotoxicity against human MOLT4 cells after 48 hrs by SRB assay; settings: MOLT-4, 48 h
# HOP-92 = assay: Cytotoxicity against human HOP92 cells after 48 hrs by SRB assay; settings: HOP-92, 48 h
# NCI-H23 = assay: Cytotoxicity against human NCI-H23 cells after 48 hrs by SRB assay; settings: NCI-H23, 48 h
# HCC 2998 = assay: Cytotoxicity against human HCC2998 cells after 48 hrs by SRB assay; settings: HCC 2998, 48 h
# SK-MEL-5 = assay: Cytotoxicity against human SK-MEL-5 cells after 48 hrs by SRB assay; settings: SK-MEL-5, 48 h
# KM12 = assay: Cytotoxicity against human KM12 cells after 48 hrs by SRB assay; settings: KM12, 48 h
# BT-549 = assay: Cytotoxicity against human BT549 cells after 48 hrs by SRB assay; settings: BT-549, 48 h
# ACHN = assay: Cytotoxicity against human ACHN cells after 48 hrs by SRB assay
# MDA-MB-435 = assay: Cytotoxicity against human MDA-MB-435 cells after 48 hrs by SRB assay; settings: MDA-MB-435, 48 h
# Hs-578T = assay: Cytotoxicity against human Hs578T cells after 48 hrs by SRB assay
# OVCAR-3 = assay: Cytotoxicity against human OVCAR3 cells after 48 hrs by SRB assay; settings: OVCAR-3, 48 h
# UACC-257 = assay: Cytotoxicity against human UACC257 cells after 48 hrs by SRB assay; settings: UACC-257, 48 h
# HCT-15 = assay: Cytotoxicity against human HCT15 cells after 48 hrs by SRB assay; settings: HCT-15, 48 h
# HOP-62 = assay: Cytotoxicity against human HOP62 cells after 48 hrs by SRB assay; settings: HOP-62, 48 h
# SK-OV-3 = assay: Cytotoxicity against human SKOV3 cells after 48 hrs by SRB assay; settings: SK-OV-3, 48 h
# HCT-116 = assay: Cytotoxicity against human HCT116 cells after 48 hrs by SRB assay; settings: HCT-116, 48 h
# SN12C = assay: Cytotoxicity against human SN12C cells after 48 hrs by SRB assay
# OVCAR-5 = assay: Cytotoxicity against human OVCAR5 cells after 48 hrs by SRB assay; settings: OVCAR-5, 48 h
# MDA-MB-468 = assay: Cytotoxicity against human MDA-MB-468 cells after 48 hrs by SRB assay; settings: MDA-MB-468, 48 h
# UACC-62 = assay: Cytotoxicity against human UACC62 cells after 48 hrs by SRB assay; settings: UACC-62, 48 h
# A498 = assay: Cytotoxicity against human A498 cells after 48 hrs by SRB assay; settings: A498, 48 h
# Malme-3M = assay: Cytotoxicity against human MALME-3M cells after 48 hrs by SRB assay
smiles,measurement,setting,value
CO[C@H](C(=O)C(C)=O)[C@@H]1Cc2cc3cc(O[C@H]4C[C@@H](O[C@H]5C[C@@H](O)[C@H](O)[C@@H](C)O5)[C@H](O)[C@@H](C)O4)c(C)c(O)c3c(O)c2C(=O)[C@H]1O[C@H]1C[C@@H](O[C@H]2C[C@@H](O)[C@H](O)[C@@H](C)O2)[C@H](O)[C@@H](C)O1,GI50,A549 [1],300 nM
same,GI50,COLO 205 [2],300 nM
same,GI50,[3],166 nM
same,GI50,MDA-MB-231; read-out: pGI50 (converted),240 nM
same,GI50,BXPC-3,300 nM
same,GI50,A549 [4]; read-out: pGI50 (converted),170 nM
same,GI50,COLO 205 [5]; read-out: pGI50 (converted),83.2 nM
CO[C@H](C(=O)[C@@H](O)[C@@H](C)O)[C@@H]1Cc2cc3cc(O[C@H]4C[C@@H](O[C@H]5C[C@@H](O)[C@H](O)[C@@H](C)O5)[C@H](O)[C@@H](C)O4)c(C)c(O)c3c(O)c2C(=O)[C@H]1O[C@H]1C[C@@H](O[C@H]2C[C@@H](O[C@H]3C[C@H](O)[C@H](O)[C@@H](C)O3)[C@H](O)[C@@H](C)O2)[C@H](O)[C@@H](C)O1,GI50,SK-MEL-28,27.5 nM
same,GI50,HT-29,75.9 nM
same,GI50,SR,14.1 nM
same,GI50,OVCAR-4,209 nM
same,GI50,HL-60,53.7 nM
same,GI50,SF-268,30.9 nM
same,GI50,DU-145,91.2 nM
same,GI50,U-251; read-out: pGI50 (converted),23.4 nM
same,GI50,[6],7760 nM
same,GI50,SF-539,33.1 nM
same,GI50,TK-10,129 nM
same,GI50,M14,100 nM
same,GI50,CAKI-1,229 nM
same,GI50,SF-295; read-out: pGI50 (converted),39.8 nM
same,GI50,PC-3,100 nM
same,GI50,EKVX,135 nM
same,GI50,OVCAR-8; read-out: pGI50 (converted),53.7 nM
same,GI50,T47D,44.7 nM
same,GI50,RXF 393,25.7 nM
same,GI50,NCI-H522,14.1 nM
same,GI50,MCF7,12.9 nM
same,GI50,RPMI-8226,11.8 nM
same,GI50,K562,24.6 nM
same,GI50,SK-MEL-2,33.9 nM
same,GI50,NCI-H460,21.4 nM
same,GI50,SNB-75,30.2 nM
same,GI50,[3],61.7 nM
same,GI50,LOX IMVI,20.4 nM
same,GI50,IGROV-1; read-out: pGI50 (converted),75.9 nM
same,GI50,MDA-MB-231; read-out: pGI50 (converted),132 nM
same,GI50,SW-620,29.5 nM
same,GI50,CCRF-CEM,28.2 nM
same,GI50,SNB-19,43.6 nM
same,GI50,UO-31,166 nM
same,GI50,NCI-H226,45.7 nM
same,GI50,MOLT-4,47.9 nM
same,GI50,HOP-92,30.2 nM
same,GI50,A549 [4]; read-out: pGI50 (converted),41.7 nM
same,GI50,NCI-H23,41.7 nM
same,GI50,HCC 2998,61.7 nM
same,GI50,SK-MEL-5; read-out: pGI50 (converted),27.5 nM
same,GI50,KM12,29.5 nM
same,GI50,BT-549,17 nM
same,GI50,ACHN,155 nM
same,GI50,MDA-MB-435,42.7 nM
same,GI50,Hs-578T,28.2 nM
same,GI50,OVCAR-3,69.2 nM
same,GI50,UACC-257,69.2 nM
same,GI50,HCT-15,1050 nM
same,GI50,HOP-62,56.2 nM
same,GI50,SK-OV-3,102 nM
same,GI50,HCT-116,19.5 nM
same,GI50,SN12C,35.5 nM
same,GI50,OVCAR-5,79.4 nM
same,GI50,MDA-MB-468,50.1 nM
same,GI50,UACC-62,12.3 nM
same,GI50,COLO 205 [5]; read-out: pGI50 (converted),49 nM
same,GI50,A498,32.4 nM
same,GI50,Malme-3M,24 nM
CO[C@H](C(=O)[C@@H](O)[C@@H](C)O)[C@@H]1Cc2cc3cc(O[C@H]4C[C@@H](O[C@@H]5C[C@@H](O)[C@H](O)[C@@H](C)O5)[C@H](O)[C@@H](C)O4)c(C)c(O)c3c(O)c2C(=O)[C@H]1O[C@H]1C[C@@H](O[C@@H]2C[C@@H](O)[C@@H](O[C@@H]3C[C@](C)(O)[C@H](O)[C@@H](C)O3)[C@@H](C)O2)[C@H](O)[C@@H](C)O1 [PLICAMYCIN],GI50,U-251; read-out: GI50,63 nM
same,GI50,SF-295; read-out: GI50,79 nM
same,GI50,OVCAR-8; read-out: GI50,79 nM
same,GI50,IGROV-1; read-out: GI50,158 nM
same,GI50,MDA-MB-231; read-out: GI50,166 nM
same,GI50,A549 [4]; read-out: GI50,79 nM
same,GI50,SK-MEL-5; read-out: GI50,63 nM
same,GI50,COLO 205 [5]; read-out: GI50,63 nM
